Measured values: patent US8802635B2, “Antioxidant, anti-inflammatory, anti-radiation, metal chelating compounds and uses thereof” (Oneday—Biotech And Pharma Ltd., priority 2011, dated 2014)
Starred links: 1 amine or outer side, 2 acyl side, 3 side chain; linkers in the order of their positions; H or OH if unused. Non-standard residues stand in square brackets, D forms with d. γGlu = O=C(O)[C@H](CCC(=O)[*:2])N[*:1]

Experiments:
HaCaT cells [1] = assay: Hydrogen peroxide-induced HaCaT keratinocyte cytotoxicity (MTT); format: cell-based; conditions: for protection of cell viability after hydrogen peroxide exposure (in words): 90 μM hydrogen peroxide 30 min, MTT after 72 hours
Protocol: All five peptides were examined in this Example, and their activity was compared to the known CB3 peptide. HaCaT cells were seeded in 96-well plate at a concentration of 10×10^4 cells/ml for 24 hours. Then cells were incubated with the peptides at the indicated concentrations for 2.5 hours followed by washing with PBS and incubation with 90 μM hydrogen peroxide (without peptide) for 30 minutes. Cells were washed with PBS and incubated with culture medium containing peptide for 72 hours. Cell viability was tested by MTT. The effect of the peptides on cell viability was performed similarly without hydrogen peroxide exposure.

[2] = test system: JNK (c-Jun N-terminal kinases); assay: Inhibition of oxidative stress (auranofin)-induced JNK phosphorylation in SH-SY5Y cells; format: cell-based, Human; conditions: auranofin 5 μM
Protocol: (§1) Human neuroblastoma SH-SY5Y cells were maintained in Dulbecco's modified Eagle's medium (DMEM, Invitrogen) supplemented with 10% fetal bovine serum (Invitrogen), 100 μg/ml streptomycin and 100 U/ml penicillin G (Gibco). Cells were plated at a density of 6.25×10^4/cm^2 and incubated for 24 hours, after which they were exposed to different treatments.
(§2) SH-SY5Y cells were plated on 96-well plates and treated with Auranofin (AuF) (5 μM) for 30 min. Then the cells were washed with PBS and treated with either one of the peptides at the indicated concentrations. Twenty-four hours later, the cells were fixed with glutaraldehyde in final concentration of 0.5% for 10 min. Cells were washed 3 times with DDW dried over night, and washed once with borate buffer (0.1M, pH 8.5). The fixed cells were stained with 200 μl of 1% methylene blue dissolved in borate buffer for 1 hour. After extensive washing and drying, the color was extracted with 200 μl of 0.1 M HCl for 1 h at 37° C. and absorbance was read in spectrophotometer at 630 nm.
(§3) Twenty to thirty micrograms of protein samples were loaded on 10-12% SDS-PAGE gels. The proteins were then transferred electrophoretically to nitrocellulose (Whatman, Germany). The blots were blocked by incubation for 1 h at room temperature (RT) in TBS-T (25 mM Tris-HCl pH 7.4, 0.9% NaCl and 0.02% Tween-20) with 4% Difco skim milk (BD, USA), and incubated over-night at 4° C. with the primary antibody: pERK1/2 (Thr 202/Tyr204), mouse mAb, (1:6,000); p-SAPK/JNK (Thr183/Tyr185), rabbit mAb; SAPK/JNK, mouse mAb; p-p38MAP Kinase (Thr180/Tyr182), rabbit mAb; cleaved caspase 3, rabbit mAb. All antibodies were from Cell Signaling Tech. USA, used at 1:1000. Purified b Catenin, mouse mAb, (1:10,000; BD Transduction Laboratories, USA) diluted in 5% BSA, 0.04% Azide in TBS-T. Proteins were detected with Anti-Mouse or Anti-Rabbit IgG-HRP linked antibody (1:10,000; Cell Signaling, Tech. USA).

p38 MAP Kinase = assay: Inhibition of oxidative stress (auranofin)-induced p38 phosphorylation in SH-SY5Y cells; format: cell-based, Human; conditions: auranofin 5 μM
Protocol: as §1, §2, §3

[3] = test system: carrageenan-induced hind paw swelling; assay: Carrageenan-induced hind paw swelling; format: in vivo, mice; conditions: 150 mg/kg i.p. 30 min prior to carrageenan
Protocol: The above new five peptides were examined for anti-inflammatory activity, and their activity was compared to that of peptide CB3. Male ICR mice received an i.p. administration of each of the tested peptide (150 mg/kg) 30 min prior to the injection of carrageenan into the sub-plantar area of both of the animal's hind paws. Carrageenan was dissolved in water at concentration of 3 mg/ml and injected at a volume of 50 μl. Hind paw thickness was measured by Mitutoyo® micrometer before carrageenan injection and afterward at intervals of 1 hour between each measurement. Swelling was calculated as the difference between the thickness of the hind paw measured at each time interval and its size at time 0 (before carrageenan injection). n=6 foot pads (3 animals) for each group.

HaCaT cells [4] = assay: UVB-induced cytotoxicity in HaCaT cells (MTT); format: cell-based; conditions: UVB 0.05 J/cm^2; MTT after 72 hours
Protocol: HaCaT cells were seeded in 96-wells plate (10×10^4/ml) and incubated in 37° C., 6% CO2 for 24 hours. Cells were incubated with the peptides at the indicated concentrations for 2.5 hours and washed (PBS). Then 100 μl PBS were added to each well followed by UVB irradiation (0.05 J/cm^2). Cells were washed with PBS and incubated with culture medium (DMEM, 100 μl) containing the peptides. MTT assay was carried out after 72 hours.

[5] = test system: malondialdehyde (MDA) in lung tissue; assay: MDA (lipid peroxidation) in lung, zymosan-induced inflammation; format: in vivo, mice; conditions: i.p. 3x50 mg/kg before, 120 mg/kg 30 min before and 5 h after zymosan; 24 h; p<0.05
Protocol: Male BALB/c mice were randomly allocated into the following experimental groups (8 mice for each group):
The peptides were administered by an intraperitoneal (i.p.) route of administration as follows: • The first dose (50 mg per kg) was given 3 days before the zymosan injection. • The second dose (50 mg per kg) was given 2 days before the zymosan injection. • The third dose (50 mg per kg) was given 1 day before the zymosan injection. • The fourth dose (120 mg per kg) was given 30 minutes before the zymosan injection. • The fifth dose (120 mg per kg) was given 5 hours after the zymosan injection.
The peptides were formulated in D5W (5% dextrose in water, “D5W”). The vehicle control was D5W. At 24 hours after administration of zymosan, animals were euthanized and assessed for inflammation by an MDA (malondialdehyde) analysis of lung tissue. All the materials and drugs (apart from the peptides) were obtained from Sigma, Inc.
Malondialdehyde (MDA) formation was used to quantify lipid peroxidation, measured as thiobarbituric acid-reactive material. […] After cooling to room temperature, samples were cleared by centrifugation at 10,000 g for 10 min and absorbance was measured at 532 nm using 1,1,3,3-tetramethoxypropane as an external standard. The level of lipid peroxides was expressed as nM MDA/mg protein.

[6] = Metal chelation: copper binding by mass spectra (ESI); conditions: 0.83 mM peptide, 1.66 mM CuSO4, 1 hour room temperature
Protocol: (§4) All five peptides were examined for their ability to bind copper and ferric ions. 0.83 mM of each peptide were mixed with 1.66 mM of either FeCL3 or CuSO4. The mixtures were incubated for 1 hour at room temperature and further kept at ° 4 C until analysis. Samples were analyzed by mass spectra (ESI).

[7] = Metal chelation: ferric ion binding by mass spectra (ESI); conditions: 0.83 mM peptide, 1.66 mM FeCL3, 1 hour room temperature
Protocol: as §4

anti-OVA serum IgE = assay: Ovalbumin-induced hypersensitivity: serum anti-OVA IgE; format: in vivo, mice; conditions: 125 mg/kg i.p. on days 13, 14, 15; blood day 16
Protocol: (§5) Male BALB/c mice (6-8 weeks old) were housed under specific pathogen-free conditions and maintained on a 12-hour light/dark cycle, with food and water ad libitum. All materials and drugs were obtained from Sigma, Inc.
(§6) Mice in Groups A, B, C, and E (n=10 per group) were sensitized with intraperitoneal (i.p.) 200 μl of sterile PBS containing 100 μg ovalbumin (OVA) and 1.6 mg alum on days 0 and 7, and challenged with intraperitoneal (i.p.) 200 μl of sterile PBS containing 10 μg ovalbumin (OVA) on day 14 in order to induce an experimental model of allergic peritonitis. Mice in Group F (n=10) were injected with intraperitoneal (i.p) 200 μl sterile PBS (“sham” group, no OVA and no Alum).
(§7) Mice in Groups A, B, and C, were treated with 150 μl of sterile PBS containing peptides DY-66, DY-65 and DY-70, respectively, at a dose of 125 mg/kg on days 13, 14, and 15 via an i.p. route of administration.
(§8) Mice in Groups E and F were treated with 150 μl of sterile PBS on days 13, 14, and 15 via an i.p. route of administration. On day 14 the test articles (or PBS vehicle) were injected 30 minutes before injecting the OVA.
Blood taken on day 16 was tested for 1) serum anti-OVA IgE, 2) white blood cell count and differential (including absolute and percentage of eosinophils count). Serum was frozen at −80° C. for future optional blood tests.

[8] = test system: cellularity of the peritoneal exudates; assay: Ovalbumin-induced hypersensitivity (allergic peritonitis): peritoneal cellularity; format: in vivo, mice; conditions: 125 mg/kg i.p. on days 13, 14, 15
Protocol: as §5, §6, §7, §8

IkappaBalpha = assay: Cytoplasmic stability of I-kappaBalpha in lung, zymosan-induced inflammation; format: in vivo, mice; conditions: lung tissue, 24 hours after zymosan
Protocol: Male BALB/c mice were randomly allocated into the following experimental groups:
The peptides were administered by an intraperitoneal (i.p.) route of administration as described in Example 3.
The peptides were formulated in D5W as described in Example 3. The vehicle control was D5W.
At 24 hours after administration of zymosan, animals were euthanized and assessed for inflammation by an NF-κB analysis of lung tissue.
Tissues were homogenized and nuclear extracts prepared via centrifugation. ELISA for IkappaBalpha was performed, using a series of standards in order to define absolute concentrations.

[9] = test system: alanine aminotransferase (ALT) in plasma / liver necrosis; assay: Concanavalin A-induced liver inflammation in C57BL/6 mice; format: in vivo; conditions: ConA dose 180 μg/mouse
Protocol: Six groups of C57BL/6 female mice (7-8 weeks old) containing 6 mice in each group were injected i.p. with different peptide on days −3, −2, −1 at a dose of 50 mg/kg or with PBS alone. On day zero all the mice were injected i.v. with 250 μg/mouse of Con A and 45 min. later they were injected i.p. with 150 mg/kg of each peptide or PBS.
Eight hours after Con A injection mice were bled into heparinized tubes (approx. 150 ul of blood from each mouse) and the levels of alanine aminotransferase (ALT) was measured in the plasma.
One day later the mice were sacrificed and their livers were placed in 4% formalin and sent for pathological examination.
Next, peptide DY-66 was examined and compared to N-acetylcysteine (NAC), CB3 and CB4. The compounds were tested according to the procedure described above. ConA dose was 180 μg/mouse.
FIG. 8 presents the change in ALT levels (%) for each of the tested compounds compared to PBS treatment (i.e., the ratio between ALT levels in samples obtained from mice treated with a tested compound and ALT levels in samples obtained from PBS-treated mice)

Compound | IC50 [2] [µM] | IC50 (p38 MAP Kinase) [µM] | protection of cell viability after hydrogen peroxide exposure (in words) (HaCaT cells [1]) | hind paw swelling compared to control (in words) [3] | ALT level compared to PBS-treated mice (in words) [9] | further results
N-acetyl-Cys-Pro-Cys-NH2 (Ac-Cys-Pro-Cys-NH2; cysteine pairing not given here) [CB3, reference compound] |  |  | slightly elevated cell viability | did not show a significant reduction | highly increased ALT level | 
N-acetyl-Cys-Gly-Pro-Cys-NH2 (Ac-CGPC-NH2; cysteine pairing not given here) [CB4, reference compound] |  |  |  |  | highly increased ALT level | 
CC(=O)N[C@@H](CS)C(=O)O [NAC, N-acetylcysteine, reference compound] |  |  |  |  | did not induce a significant change in ALT level | 

More lines, main results first:

IC50 [2] [µM] | IC50 (p38 MAP Kinase) [µM] | Compound | protection of cell viability after hydrogen peroxide exposure (in words) (HaCaT cells [1]) | hind paw swelling compared to control (in words) [3] | ALT level compared to PBS-treated mice (in words) [9] | further results
82.3 | 46.9 | N-acetyl-Cys-γGlu-Cys-Cys-NH2 (Ac-C[γGlu]CC-NH2; cysteine pairing not given here) [DY-71] | slightly elevated cell viability |  |  | 
67.3 | 36.5 | N-acetyl-Cys-γGlu-Cys-NH2 (Ac-Cys-[γGlu]-Cys-NH2; cysteine pairing not given here) [DY-67] |  | Reduced swelling compared to control |  | increase in cell viability (HaCaT cells [1]; concentrations of 1-10 μM): about 45%
22.1 | 22.2 | N-acetyl-Cys-Met-Lys-Cys-NH2 (Ac-CMKC-NH2; cysteine pairing not given here) [DY-70] | fully protected the cells from hydrogen peroxide |  |  | protection against UVB-induced cytotoxicity (in words) (HaCaT cells [4]): protective effect at low concentrations; effect on zymosan-induced elevation of MDA in lung tissue (in words) [5]: inhibited the elevation in MDA concentration; copper binding (in words) [6]: low degree; FeCl binding (in words) [7]: low degree; effect on OVA-induced elevation of anti-OVA serum IgE titer (in words) (anti-OVA serum IgE): significantly reduced the elevation; rank order of reduction of anti-OVA serum IgE titer (anti-OVA serum IgE): DY-65>DY-70>DY-66; effect on OVA-induced elevation of peritoneal exudate cellularity (in words) [8]: significantly reduced the elevation; rank order of reduction of peritoneal exudate cellularity [8]: DY-65>DY-70>DY-66; rank order of efficacy on cytoplasmic IkappaBalpha (IkappaBalpha): DY-70>DY-65>DY-66
